Results on 3 molecules are retold here after ChEMBL document CHEMBL5154787 (J Med Chem, 2022).

Converted amounts (≈) assume the structure as drawn.

Data set [1] can be described thus: Chemical stability of the compound assessed as remaining product at pH 7.4 measured after 22 hrs. Type of data set: physicochemical. The following applies: buffer, read-out: Stability.
Data set [2] in a line: Chemical stability of the compound assessed as remaining product at pH 1 measured after 22 hrs. Type of data set: physicochemical. The settings on record: buffer, read-out: Stability.
Data set [3] is described as follows: Genotoxicity in chinese hamster CHO cells in presence of metabolic activation system at 169 uM by IVMN assay. Type of data set: toxicity, cell-based, Cricetulus griseus.
Data set [4] in a line: Genotoxicity in chinese hamster CHO cells without metabolic activation system at 59 uM by IVMN assay. Type of data set: toxicity, cell-based, Cricetulus griseus.
Data set [5] can be described thus: Solubility of compound at pH 1 measured after 24 hrs. Type of data set: physicochemical. The settings on record: buffer.
Data set [6] is described as follows: Solubility of compound at pH 2 measured after 24 hrs. It is filed as physicochemical. The following applies: buffer.
Data set [7] in a line: Solubility of compound at pH 3 measured after 24 hrs. Type of data set: physicochemical. The settings on record: buffer.
Data set [8] is described as follows: Solubility of compound at pH 7.4 measured after 24 hrs. It is filed as physicochemical. The settings on record: buffer.
Data set [9] can be described thus: Solubility of compound in FaSSIF incubated for 24 hrs. It is filed as physicochemical.
Data set [10] can be described thus: Solubility of compound in FessiF incubated for 24 hrs. Type of data set: physicochemical.
The test system of data set [11] is Rattus norvegicus. The experiment in a line: Analgesic activity in STZ induced in diabetic peripheral neuropathic mechanical allodynia in Sprague-Dawley rat assessed as reduction in pain response at 10 mg/kg, po measured up to 24 hrs by Hargreaves test relative to control. Type of data set: functional. On the set-up: scale not given: the % may be the effect or the level left.

Data set [12] concerns Rattus norvegicus. The experiment in a line: Analgesic activity in STZ induced in diabetic peripheral neuropathic mechanical allodynia in Sprague-Dawley rat assessed as reduction in pain response at 3 mg/kg, po measured up to 24 hrs by Hargreaves test relative to control. It is filed as functional. On the set-up: scale not given: the % may be the effect or the level left.

The test system of data set [13] is Rattus norvegicus. The experiment in a line: Analgesic activity in STZ induced in diabetic peripheral neuropathic mechanical allodynia in Sprague-Dawley rat assessed as reversal in mechanical allodynia by measuring inhibition of pain response at 1 mg/kg, po measured up to 24 hrs by Hargreaves test relative to control. Type of data set: functional. On the set-up: scale not given: the % may be the effect or the level left.

Data set [14] concerns the target 5-hydroxytryptamine receptor 2B (Homo sapiens, UniProt P41595). The experiment in a line: Inhibition of 5HT2B receptor (unknown origin). It is filed as toxicity.
Data set [15] addresses Death-associated protein kinase 1 (Homo sapiens, UniProt P53355). In words: Inhibition of DAPK1 (unknown origin).
The target in data set [16] is AP2-associated protein kinase 1 (Homo sapiens, UniProt Q2M2I8). The experiment in a line: Inhibition of bacterially expressed GST-Xa-tagged human AAK1 using 5-FAM-labelled Aha-KEEQSQITSQVTGQIGWR-NH2 peptide as substrate incubated for 3 hrs in presence of ATP by electrophoretic analysis.
The target in data set [17] is Acetylcholine receptor subunit alpha (Homo sapiens, UniProt P02708). The experiment in a line: Inhibition of nicotinic acetylcholine receptor alpha 1 (unknown origin). Type of data set: toxicity.
Data set [18] has as its target T1, Homeodomain-interacting protein kinase 4 (Homo sapiens, UniProt Q8NE63).
T1 sequence (Q8NE63 whole entry): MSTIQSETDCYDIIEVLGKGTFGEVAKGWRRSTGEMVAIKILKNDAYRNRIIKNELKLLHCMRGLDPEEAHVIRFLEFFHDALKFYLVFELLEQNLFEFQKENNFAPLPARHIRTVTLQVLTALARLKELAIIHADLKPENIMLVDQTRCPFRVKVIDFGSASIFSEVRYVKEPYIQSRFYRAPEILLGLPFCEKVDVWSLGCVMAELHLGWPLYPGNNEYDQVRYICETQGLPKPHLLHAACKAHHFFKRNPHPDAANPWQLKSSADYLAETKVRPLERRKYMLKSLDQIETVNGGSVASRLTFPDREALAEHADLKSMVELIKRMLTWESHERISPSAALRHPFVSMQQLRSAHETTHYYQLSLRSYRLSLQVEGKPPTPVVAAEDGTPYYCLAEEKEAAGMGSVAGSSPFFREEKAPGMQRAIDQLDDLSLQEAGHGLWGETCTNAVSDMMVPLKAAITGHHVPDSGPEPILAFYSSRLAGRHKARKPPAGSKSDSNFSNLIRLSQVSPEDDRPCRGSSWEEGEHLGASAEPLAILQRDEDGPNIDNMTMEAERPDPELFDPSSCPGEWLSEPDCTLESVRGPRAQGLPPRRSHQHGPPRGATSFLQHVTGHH
The experiment in a line: Inhibition of HIPK4 (unknown origin).

Data set [19] addresses Rho-associated protein kinase 2 (Homo sapiens, UniProt O75116). The experiment in a line: Inhibition of ROCK2 (unknown origin).
Data set [20] is described as follows: Ratio of drug concentration in spinal cord to plasma in CCI induced thermal hyperalgesia in Sprague-Dawley rat at 1 mg/kg, po measured at 5.5 hrs post dose. Type of data set: ADME, organism-based.
Data set [21] is described as follows: Drug concentration in CCI induced thermal hyperalgesia in Sprague-Dawley rat spinal cord at 1 mg/kg, po measured after 5.5 hrs. The following applies: read-out: Ct. It is filed as ADME, organism-based.
Data set [22] has as its target Solute carrier organic anion transporter family member 1B1 (Homo sapiens, UniProt Q9Y6L6). The experiment in a line: Inhibition of OATP1B1 (unknown origin).
In data set [23] the target is Solute carrier organic anion transporter family member 1B3 (Homo sapiens, UniProt Q9NPD5). The experiment in a line: Inhibition of OATP1B3 (unknown origin).
The target of data set [24] is Hepatic sodium/bile acid cotransporter (Homo sapiens, UniProt Q14973). In words: Inhibition of NTCP (unknown origin).
Another data set deals with Bile salt export pump (Homo sapiens, UniProt O95342). In words: Inhibition of BSEP (unknown origin).
For data set [25], the target named is ATP-binding cassette sub-family C member 2 (Homo sapiens, UniProt Q92887). The experiment in a line: Inhibition of MRP2 (unknown origin).
Data set [26] has as its target Solute carrier family 22 member 6 (Homo sapiens, UniProt Q4U2R8). In words: Inhibition of OAT1 (unknown origin).
Data set [27] concerns the target Organic anion transporter 3 (Homo sapiens, UniProt Q8TCC7). The experiment in a line: Inhibition of OAT3 (unknown origin).
Data set [28] in a line: Inhibition of cardiac sodium channel (unknown origin). On the set-up: species or system Homo sapiens.
Data set [29] can be described thus: Tmax in rat at 3 mg/kg, po. The settings on record: in vivo. It is filed as ADME, organism-based.
A short description of data set [30]: In vivo protein occupancy at AAK1 in rat at 3 mg/kg, po measured after 4 hrs. Type of data set: functional.
Data set [31] can be described thus: Plasma concentration in rat at 3 mg/kg, po measured after 4 hrs. Type of data set: ADME, organism-based.
Data set [32] can be described thus: Drug concentration in rat spinal cord at 3 mg/kg, po measured after 4 hrs. The following applies: read-out: Ct. It is filed as ADME, organism-based.
A short description of data set [33]: Ratio of drug concentration in spinal cord to plasma in rat at 3 mg/kg, po measured at 4 hrs post dose. Type of data set: ADME, organism-based.
In data set [34] the test system is Rattus norvegicus. In words: Analgesic activity in CCI induced thermal hyperalgesia in Sprague-Dawley rat assessed as reduction in thermal hyperalgesia by measuring inhibition of pain response at 1 mg/kg, po measured after 5.5 hrs by Hargreaves test relative to control. Type of data set: functional. On the set-up: scale not given: the % may be the effect or the level left.

The test system of data set [35] is Rattus norvegicus. In words: Analgesic activity in STZ induced in diabetic peripheral neuropathic path mechanical allodynia in Sprague-Dawley rat assessed as reversal in mechanical allodynia by measuring inhibition of pain response at 1 mg/kg, po measured up to 5.5 hrs by Hargreaves test relative to control. On the set-up: scale not given: the % may be the effect or the level left. It is filed as functional.

Data set [36] is described as follows: Plasma concentration in CCI induced thermal hyperalgesia in Sprague-Dawley rat at 3 mg/kg, po measured at 5.5 hrs post dose. It is filed as ADME, organism-based.
Data set [37] in a line: Drug concentration in CCI induced thermal hyperalgesia in Sprague-Dawley rat spinal cord at 3 mg/kg, po measured after 5.5 hrs. Type of data set: ADME, organism-based. The following applies: read-out: Ct.
In data set [38] the target is Citron Rho-interacting kinase (Homo sapiens, UniProt O14578). In words: Inhibition of CRIK (unknown origin).

Chain of Hepatic sodium/bile acid cotransporter (Q14973 whole entry): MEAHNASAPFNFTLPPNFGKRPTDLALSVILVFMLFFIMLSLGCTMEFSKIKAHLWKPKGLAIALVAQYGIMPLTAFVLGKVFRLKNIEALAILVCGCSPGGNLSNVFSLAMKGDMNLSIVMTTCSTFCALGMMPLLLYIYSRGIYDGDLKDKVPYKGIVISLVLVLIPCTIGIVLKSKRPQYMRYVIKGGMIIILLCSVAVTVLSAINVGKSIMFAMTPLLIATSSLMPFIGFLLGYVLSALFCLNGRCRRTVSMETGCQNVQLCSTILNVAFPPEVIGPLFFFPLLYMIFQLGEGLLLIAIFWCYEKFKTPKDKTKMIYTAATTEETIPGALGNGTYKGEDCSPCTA
Chain of ATP-binding cassette sub-family C member 2 (Q92887 whole entry): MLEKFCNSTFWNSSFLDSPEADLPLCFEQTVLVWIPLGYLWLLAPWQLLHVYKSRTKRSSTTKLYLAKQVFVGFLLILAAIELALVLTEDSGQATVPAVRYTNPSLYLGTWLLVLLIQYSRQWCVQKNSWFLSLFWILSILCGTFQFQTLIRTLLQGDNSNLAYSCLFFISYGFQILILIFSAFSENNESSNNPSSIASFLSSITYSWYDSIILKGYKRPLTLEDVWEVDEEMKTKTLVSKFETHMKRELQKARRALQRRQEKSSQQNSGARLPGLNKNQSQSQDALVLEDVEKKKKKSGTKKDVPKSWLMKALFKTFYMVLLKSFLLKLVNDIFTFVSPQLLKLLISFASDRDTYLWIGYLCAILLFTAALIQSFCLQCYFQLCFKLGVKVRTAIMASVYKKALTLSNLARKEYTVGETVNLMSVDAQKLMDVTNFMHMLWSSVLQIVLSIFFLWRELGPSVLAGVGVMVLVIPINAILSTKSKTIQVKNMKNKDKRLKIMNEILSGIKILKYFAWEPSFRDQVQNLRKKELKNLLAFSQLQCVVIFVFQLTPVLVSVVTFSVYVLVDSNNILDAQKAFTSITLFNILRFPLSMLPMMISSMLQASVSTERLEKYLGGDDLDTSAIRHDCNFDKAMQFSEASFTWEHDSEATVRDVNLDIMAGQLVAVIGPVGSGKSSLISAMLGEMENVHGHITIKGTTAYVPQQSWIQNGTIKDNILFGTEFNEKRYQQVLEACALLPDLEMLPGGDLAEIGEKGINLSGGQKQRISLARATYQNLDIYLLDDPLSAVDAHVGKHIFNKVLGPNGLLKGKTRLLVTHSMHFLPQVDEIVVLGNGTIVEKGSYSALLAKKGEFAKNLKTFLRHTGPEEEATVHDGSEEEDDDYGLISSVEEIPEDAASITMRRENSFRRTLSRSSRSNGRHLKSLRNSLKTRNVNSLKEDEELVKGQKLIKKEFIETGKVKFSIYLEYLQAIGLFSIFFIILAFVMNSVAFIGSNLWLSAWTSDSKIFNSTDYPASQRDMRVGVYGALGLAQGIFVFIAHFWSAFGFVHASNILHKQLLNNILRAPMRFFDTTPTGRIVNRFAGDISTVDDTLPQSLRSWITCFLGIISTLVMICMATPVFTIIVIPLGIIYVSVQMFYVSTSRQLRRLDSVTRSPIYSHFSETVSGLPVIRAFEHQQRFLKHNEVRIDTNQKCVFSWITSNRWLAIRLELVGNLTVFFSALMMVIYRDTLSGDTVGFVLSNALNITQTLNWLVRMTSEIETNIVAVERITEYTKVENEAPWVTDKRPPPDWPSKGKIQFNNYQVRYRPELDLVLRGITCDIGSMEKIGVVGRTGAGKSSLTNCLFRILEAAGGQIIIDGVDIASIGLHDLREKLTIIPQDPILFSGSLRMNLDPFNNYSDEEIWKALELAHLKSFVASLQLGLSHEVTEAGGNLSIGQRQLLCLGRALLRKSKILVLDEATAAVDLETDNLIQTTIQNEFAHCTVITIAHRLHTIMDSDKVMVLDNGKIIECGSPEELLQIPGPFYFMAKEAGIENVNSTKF
Chain of Solute carrier family 22 member 6 (Q4U2R8 whole entry): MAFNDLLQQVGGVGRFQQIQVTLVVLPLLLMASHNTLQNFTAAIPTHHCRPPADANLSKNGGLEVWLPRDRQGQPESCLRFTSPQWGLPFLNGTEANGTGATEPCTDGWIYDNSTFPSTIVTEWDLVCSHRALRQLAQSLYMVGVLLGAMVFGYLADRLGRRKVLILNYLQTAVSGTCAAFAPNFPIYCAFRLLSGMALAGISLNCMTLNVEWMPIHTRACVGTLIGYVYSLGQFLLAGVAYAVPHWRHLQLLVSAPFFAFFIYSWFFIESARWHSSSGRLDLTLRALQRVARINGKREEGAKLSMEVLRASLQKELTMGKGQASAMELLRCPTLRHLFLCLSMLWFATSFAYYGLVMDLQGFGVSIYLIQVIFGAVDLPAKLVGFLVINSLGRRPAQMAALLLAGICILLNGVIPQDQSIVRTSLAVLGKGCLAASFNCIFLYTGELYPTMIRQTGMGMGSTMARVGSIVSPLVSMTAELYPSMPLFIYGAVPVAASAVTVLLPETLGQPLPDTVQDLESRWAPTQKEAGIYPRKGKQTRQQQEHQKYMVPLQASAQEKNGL
Chain of AP2-associated protein kinase 1 (Q2M2I8 whole entry): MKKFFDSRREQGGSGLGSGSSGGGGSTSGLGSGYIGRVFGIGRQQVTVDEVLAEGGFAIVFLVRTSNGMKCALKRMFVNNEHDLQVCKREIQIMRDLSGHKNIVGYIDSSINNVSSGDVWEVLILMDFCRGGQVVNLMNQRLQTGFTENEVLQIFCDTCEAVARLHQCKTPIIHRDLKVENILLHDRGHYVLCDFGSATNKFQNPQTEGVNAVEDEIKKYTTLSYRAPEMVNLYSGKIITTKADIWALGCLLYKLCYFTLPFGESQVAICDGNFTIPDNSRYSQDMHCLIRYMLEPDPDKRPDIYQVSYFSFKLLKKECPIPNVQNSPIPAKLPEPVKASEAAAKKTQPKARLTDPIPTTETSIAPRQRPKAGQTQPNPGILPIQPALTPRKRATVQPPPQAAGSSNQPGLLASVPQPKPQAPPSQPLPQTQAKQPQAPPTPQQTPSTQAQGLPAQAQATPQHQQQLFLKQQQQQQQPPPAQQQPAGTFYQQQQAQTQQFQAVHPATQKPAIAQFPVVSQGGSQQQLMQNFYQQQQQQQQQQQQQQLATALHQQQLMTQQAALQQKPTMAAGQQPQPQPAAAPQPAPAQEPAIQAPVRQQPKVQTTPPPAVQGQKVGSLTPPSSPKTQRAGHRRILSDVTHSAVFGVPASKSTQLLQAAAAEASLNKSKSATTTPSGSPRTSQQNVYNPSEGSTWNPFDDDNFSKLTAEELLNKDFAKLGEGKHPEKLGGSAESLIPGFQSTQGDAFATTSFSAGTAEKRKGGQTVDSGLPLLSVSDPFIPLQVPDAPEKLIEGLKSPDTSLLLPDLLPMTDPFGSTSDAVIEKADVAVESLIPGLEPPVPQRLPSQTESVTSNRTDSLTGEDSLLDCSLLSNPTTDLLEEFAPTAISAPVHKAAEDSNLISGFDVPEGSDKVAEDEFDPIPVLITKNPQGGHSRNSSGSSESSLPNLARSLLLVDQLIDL
Chain of Bile salt export pump (O95342 whole entry): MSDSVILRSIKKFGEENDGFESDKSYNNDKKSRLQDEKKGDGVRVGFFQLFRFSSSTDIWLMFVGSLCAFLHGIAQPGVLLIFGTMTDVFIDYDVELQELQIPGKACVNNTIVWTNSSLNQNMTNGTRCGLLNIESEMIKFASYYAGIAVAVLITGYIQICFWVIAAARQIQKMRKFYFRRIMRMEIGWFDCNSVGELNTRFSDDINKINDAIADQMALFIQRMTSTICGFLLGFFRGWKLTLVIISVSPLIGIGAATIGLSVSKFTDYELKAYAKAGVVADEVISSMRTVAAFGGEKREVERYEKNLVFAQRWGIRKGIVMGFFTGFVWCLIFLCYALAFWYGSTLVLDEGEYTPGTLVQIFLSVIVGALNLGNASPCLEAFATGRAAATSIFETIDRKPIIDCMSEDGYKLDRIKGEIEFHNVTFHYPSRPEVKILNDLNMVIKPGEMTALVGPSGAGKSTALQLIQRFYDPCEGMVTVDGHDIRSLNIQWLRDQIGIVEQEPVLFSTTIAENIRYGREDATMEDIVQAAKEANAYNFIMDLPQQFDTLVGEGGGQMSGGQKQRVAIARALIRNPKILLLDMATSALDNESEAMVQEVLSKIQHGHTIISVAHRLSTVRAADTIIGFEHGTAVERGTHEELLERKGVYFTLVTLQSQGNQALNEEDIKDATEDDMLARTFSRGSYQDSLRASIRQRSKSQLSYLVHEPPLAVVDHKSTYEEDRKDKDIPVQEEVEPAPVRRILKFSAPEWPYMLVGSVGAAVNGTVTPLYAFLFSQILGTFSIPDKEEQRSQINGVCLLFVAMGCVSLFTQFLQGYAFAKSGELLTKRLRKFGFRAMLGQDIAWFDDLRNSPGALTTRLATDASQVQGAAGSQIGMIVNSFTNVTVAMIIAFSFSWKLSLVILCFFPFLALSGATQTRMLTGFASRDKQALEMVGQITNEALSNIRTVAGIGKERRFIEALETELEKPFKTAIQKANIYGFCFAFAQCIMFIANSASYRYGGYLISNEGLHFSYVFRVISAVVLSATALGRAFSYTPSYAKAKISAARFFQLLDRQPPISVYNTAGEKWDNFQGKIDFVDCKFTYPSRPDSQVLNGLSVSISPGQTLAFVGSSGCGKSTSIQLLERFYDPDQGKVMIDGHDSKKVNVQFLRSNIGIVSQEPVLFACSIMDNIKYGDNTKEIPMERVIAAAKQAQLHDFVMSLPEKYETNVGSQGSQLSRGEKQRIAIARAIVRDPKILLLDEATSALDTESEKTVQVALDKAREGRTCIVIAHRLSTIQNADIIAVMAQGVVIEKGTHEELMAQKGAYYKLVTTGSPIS

In the case of `COC(=O)Nc1cc(-c2ccc(OC[C@@](C)(N)CC(C)C)c(C)n2)ccn1`, the remaining at 22 h in data set [1] and in data set [2] was 100% each time. The Activity entry is “Non-Toxic” in data set [3]; “Non-Toxic” in data set [4]; 80% in the data set on Rattus norvegicus [11]; 60% in the data set on Rattus norvegicus [12]; 40% in the data set with Rattus norvegicus [13]. The solubility at 24 h in data set [5] is over 1000 µg/mL; in data set [6], over 1000 µg/mL; in [7], over 1000 µg/mL; in data set [8], 288 µg/mL (≈ 773 µM); in [9] it was over 1000 µg/mL; in data set [10] it was over 1000 µg/mL. Also, the half-maximal inhibitory concentration (IC50) in data set [14] came to 540 nM; in data set [15] it was 1400 nM.

For `COC(=O)Nc1cc(-c2cnc(OC[C@@](C)(N)CC(C)C)c(C)c2)ccn1`, the IC50 in data set [16] is 0.9 nM; in [17], 2200 nM; in data set [18], 1800 nM; in data set [19], 1300 nM.

Turning to `CC(C)C[C@](C)(N)COc1cnc(-c2ccnc(C(F)F)c2)cc1C(F)F`, the Kp at 5.5 h in data set [20] was 18. Also, the concentration at 5.5 h in data set [21] came out at 217 nM; in data set [36] it was 29 nM; in [37], 378 nM. In addition, the IC50 (in data set [22]; in data set [23]; in data set [24]; on Bile salt export pump; in data set [25]; in data set [26]) was over 50000 nM each time. The IC50 was over 50000 nM in [27], 5400 nM in [28] and 1200 nM in [38]. Also, the Tmax in data set [29] amounted to 3.7 h. Moreover, the Activity is given as 95% in data set [30], 80% in the data set on Rattus norvegicus [34] and 50% in the data set with Rattus norvegicus [35]. For the same molecule, the concentration at 4 h in data set [31] stood at 47 nM; in data set [32] it was 825 nM. Besides, the Kp at 4 h in data set [33] was 17.6.
